Series [1] concerns the target T1, hERG potassium channel (Homo sapiens, UniProt Q12809).
T1 construct: expressed in transfected cells; host or cells: HEK293
Briefly: hERG-transfected HEK293 cells using a Patch Express apparatus. The class given is cell-based. As to conditions: bracketed value in cell = % block by vehicle. The procedure:
Experiments were performed using HEK293 cells stably expressing the hERG potassium channel. Cells were grown at 37° C. and 5% CO2 in culture flasks in MEM Medium supplemented with 10% heat-inactivated fetal bovine serum, 1% L-Glutamine-Penicillin-Streptomycin-solution, 1% non-essential amino acids (100×), 1% sodium pyruvate (100 mM) and 0.8% Geneticin (50 mg/ml). Before use the cells were subcultured in MEM medium in the absence of 5 ml L-Glutamine-Penicillin-Streptomycin. For use in the automated patch-clamp system PatchXpress 7000A (Axon Instruments) cells were harvested to obtain cell suspension of single cells. Extracellular solution contained (mM): 150 NaCl, 4 KCl, 1 MgCl2, 1.8 CaCl2, 10 HEPES, 5 Glucose (pH 7.4 with NaOH). Pipette solution contained (mM): 120 KCl, 10 HEPES, 5 EGTA, 4 ATP-Mg2, 2 MgCl2, 0.5 CaCl2 (pH 7.2 with KOH).
Patch-clamp experiments were performed in the voltage-clamp mode and whole-cell currents were recorded with an automated patch-clamp assay utilizing the PatchXpress 7000A system (Axon Instruments). Current signals were amplified and digitized by a Multiclamp amplifier, stored and analyzed by using the PatchXpress, DataXpress software and Igor 5.0 (Wavemetrics).
The holding potential was −80 mV. The hERG current (K+-selective outward current) was determined as the maximal tail current at −40 mV after a 2 second depolarization to +60 mV. Pulse cycling rate was 15 s. Before each test pulse a short pulse (0.5 s) from the holding potential to −60 mV was given to determine (linear) leak current. After establishing whole-cell configuration and a stability period, the vehicle (aqueous DMSO control) was applied for 5 minutes followed by the test substance by increasing concentrations of 10^−7 M, 3×10^−7 M and 3×10^−6 M.
Each concentration of the test substance was applied twice. The effect of each concentration was determined after 5 min as an average current of 3 sequential voltage pulses. To determine the extent of block the residual current was compared with vehicle pre-treatment. Data are expressed as % block at the indicated concentrations in Table 4. The values between brackets refer to % block by the vehicle.

For series [2], the target named is T2, 5HT2A (Homo sapiens, UniProt P28223).
T2 construct: expressed in transfected cells; host or cells: NIH3T3 (membrane fraction)
T2 sequence (P28223 whole entry): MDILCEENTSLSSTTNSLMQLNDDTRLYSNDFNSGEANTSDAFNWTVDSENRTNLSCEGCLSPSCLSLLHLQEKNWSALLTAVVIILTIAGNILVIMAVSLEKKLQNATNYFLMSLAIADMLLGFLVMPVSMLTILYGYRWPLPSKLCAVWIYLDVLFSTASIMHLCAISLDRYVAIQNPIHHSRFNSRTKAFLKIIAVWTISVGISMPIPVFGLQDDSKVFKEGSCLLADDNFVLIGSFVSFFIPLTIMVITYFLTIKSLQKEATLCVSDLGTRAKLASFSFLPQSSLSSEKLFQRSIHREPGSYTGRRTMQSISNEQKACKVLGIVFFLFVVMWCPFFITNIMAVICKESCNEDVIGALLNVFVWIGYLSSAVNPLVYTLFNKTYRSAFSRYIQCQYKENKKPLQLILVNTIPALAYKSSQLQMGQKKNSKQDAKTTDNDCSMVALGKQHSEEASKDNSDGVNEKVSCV
Briefly: Competitive radioligand binding, 5HT2A. As to conditions: NIH3T3 membranes, 3H-ketanserin 2 nM; read-out: pIC50 5HT2A (converted). On the procedure:
(§1) Competitive radioligand binding assays were used to determine the affinity of the test compounds for a particular receptor. Various concentrations of the non-labelled test compound were added to the incubation mixture with the membrane fraction, containing the receptor of interest, and a fixed low concentration (nM) of the radioligand. During the incubation the radioligand bound to the receptor, but this was inhibited by the non-labelled test compound in proportion to its binding affinity and concentration.
(§2) Cell lines were established that stably express the human variant of the receptor under investigation after transfection with the appropriate cDNA (Table 1). Transfected cells were grown under standard culture conditions, and membrane fractions were obtained upon centrifugation and homogenisation of the cells. Optimal membrane dilutions for binding studies were determined and aliquots were stored at −70° C. until use. In a 96-well plate format, the appropriate radioligand was added to the membrane preparation containing the receptor under investigation. Compound solutions were prepared in DMSO, and diluted 100-fold into the multiwell plate to a final test concentration of 10^−9 to 10^−5 M. After incubation with the test compound, the unbound radioligand was removed by filtration on G/F filters with a Filtermate 96. Microscint™ was added to the washed filter plates and the radioactivity bound to the receptor was measured by liquid scintillation counting in a TopCount (Packard). To measure the Non-Specific Binding (NSB), a high concentration of the non-radiolabeled ligand was added to wells containing the membrane fraction and the radioligand.
(§3) From this, the pIC50 value (inhibitory concentration causing 50% displacement of specific binding) was determined, as well as an estimate of the slope of the plot (Hill coefficient).

The target of series [3] is T3, 5HT4B (Homo sapiens, UniProt Q13639).
T3 construct: expressed in transfected cells; host or cells: HEK293 (membrane fraction)
T3 sequence (Q13639 whole entry): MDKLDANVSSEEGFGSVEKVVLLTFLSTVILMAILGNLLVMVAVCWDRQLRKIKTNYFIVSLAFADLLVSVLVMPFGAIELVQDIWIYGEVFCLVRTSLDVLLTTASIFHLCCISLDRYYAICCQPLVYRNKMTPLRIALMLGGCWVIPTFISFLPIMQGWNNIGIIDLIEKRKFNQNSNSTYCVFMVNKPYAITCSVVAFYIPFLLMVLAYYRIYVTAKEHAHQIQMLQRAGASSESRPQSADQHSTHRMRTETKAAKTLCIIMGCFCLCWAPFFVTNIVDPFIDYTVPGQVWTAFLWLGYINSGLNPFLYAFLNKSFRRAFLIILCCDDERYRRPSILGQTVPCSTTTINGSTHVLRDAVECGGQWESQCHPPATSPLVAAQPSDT
Briefly: Competitive radioligand binding, 5HT4B. As to conditions: HEK293 membranes, 3H-GR113808 0.1 nM; for IC50: read-out: pIC50 5HT4B (converted). The procedure: as §1, §2, §3

Series [4] deals with 5HT2B (Homo sapiens, UniProt P41595). Put plainly: 5-HT2B antagonism, FLIPR intracellular calcium in transfected CHO-K1 cells. As to conditions: for IC50: CHO-K1 cells, response to 0.1 nM serotonin, Fluo-3 FLIPR; for Kb: modified Cheng Prusoff equation from IC50, read-out: 5-HT2B antagonism KB (apparent dissociation constant). It counts as cell-based. Also noted: expressed in transfected cells; host or cells: CHO-K1 (ECACC). The procedure:
CHO-K1 (ECACC) cells were stably transfected with human 5-HT2B receptor cDNA subcloned into pCDNA3.1 using the calcium phosphate method. Stably transfected cell lines were selected using G-418, and clonal cell lines were developed by limit dilution. Cell lines were cultured in Dulbecco's modified Eagle Medium (DMEM) containing 10% heat inactivated dialyzed foetal bovine serum (FBS), 1% penicillin-streptomycin, 1% L-glutamine and 1% non-essential amino acids.
Confluent monolayers plated into black 96 well plates with clear bottoms were loaded with 4 μM Fluo-3-AM for 90 min at 37° C. in Hanks balanced salt solution supplemented with 20 mM HEPES and 2.5 mM probenecid. After washing, the test compound was added to the cells and maximal fluorescence in response to 0.1 nM serotonin was recorded using a fluorometric imaging plate reader (FLIPR) to detect changes in intracellular calcium levels.
The maximal fluorescence recorded in the presence of the test compound was expressed as a percent of the maximal fluorescence response to the agonist serotonin (0.1 nM). […] The apparent dissociation constant (KB) was calculated using the modified Cheng Prusoff equation (KB=IC50/(1+(A/EC50A)), where A=concentration of serotonin, and EC50A=EC50 value of serotonin in this assay). (Porter et al. (1999), Br. J. Pharmacol., 128: 13-20)
(In general: Calcium flux is commonly read through the fluorescence of an indicator in the cells.)

The structures appear in SMILES notation. Where only a bound is given, the exact number is not on record here.

5HT2B, sequence (P41595 whole entry): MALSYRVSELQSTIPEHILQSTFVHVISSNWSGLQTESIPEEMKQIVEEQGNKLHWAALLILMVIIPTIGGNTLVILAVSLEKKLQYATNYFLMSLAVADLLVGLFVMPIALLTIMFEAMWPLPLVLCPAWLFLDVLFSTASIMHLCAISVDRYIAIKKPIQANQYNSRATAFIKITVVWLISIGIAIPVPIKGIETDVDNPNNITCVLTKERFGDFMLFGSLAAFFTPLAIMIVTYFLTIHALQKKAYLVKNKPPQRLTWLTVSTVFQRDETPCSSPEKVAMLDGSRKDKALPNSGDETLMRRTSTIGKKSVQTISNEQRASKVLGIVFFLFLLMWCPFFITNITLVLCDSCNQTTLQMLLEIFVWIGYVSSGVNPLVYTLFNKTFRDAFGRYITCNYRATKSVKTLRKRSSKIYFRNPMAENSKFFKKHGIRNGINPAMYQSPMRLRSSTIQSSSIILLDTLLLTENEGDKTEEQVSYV
T1 sequence (Q12809 whole entry): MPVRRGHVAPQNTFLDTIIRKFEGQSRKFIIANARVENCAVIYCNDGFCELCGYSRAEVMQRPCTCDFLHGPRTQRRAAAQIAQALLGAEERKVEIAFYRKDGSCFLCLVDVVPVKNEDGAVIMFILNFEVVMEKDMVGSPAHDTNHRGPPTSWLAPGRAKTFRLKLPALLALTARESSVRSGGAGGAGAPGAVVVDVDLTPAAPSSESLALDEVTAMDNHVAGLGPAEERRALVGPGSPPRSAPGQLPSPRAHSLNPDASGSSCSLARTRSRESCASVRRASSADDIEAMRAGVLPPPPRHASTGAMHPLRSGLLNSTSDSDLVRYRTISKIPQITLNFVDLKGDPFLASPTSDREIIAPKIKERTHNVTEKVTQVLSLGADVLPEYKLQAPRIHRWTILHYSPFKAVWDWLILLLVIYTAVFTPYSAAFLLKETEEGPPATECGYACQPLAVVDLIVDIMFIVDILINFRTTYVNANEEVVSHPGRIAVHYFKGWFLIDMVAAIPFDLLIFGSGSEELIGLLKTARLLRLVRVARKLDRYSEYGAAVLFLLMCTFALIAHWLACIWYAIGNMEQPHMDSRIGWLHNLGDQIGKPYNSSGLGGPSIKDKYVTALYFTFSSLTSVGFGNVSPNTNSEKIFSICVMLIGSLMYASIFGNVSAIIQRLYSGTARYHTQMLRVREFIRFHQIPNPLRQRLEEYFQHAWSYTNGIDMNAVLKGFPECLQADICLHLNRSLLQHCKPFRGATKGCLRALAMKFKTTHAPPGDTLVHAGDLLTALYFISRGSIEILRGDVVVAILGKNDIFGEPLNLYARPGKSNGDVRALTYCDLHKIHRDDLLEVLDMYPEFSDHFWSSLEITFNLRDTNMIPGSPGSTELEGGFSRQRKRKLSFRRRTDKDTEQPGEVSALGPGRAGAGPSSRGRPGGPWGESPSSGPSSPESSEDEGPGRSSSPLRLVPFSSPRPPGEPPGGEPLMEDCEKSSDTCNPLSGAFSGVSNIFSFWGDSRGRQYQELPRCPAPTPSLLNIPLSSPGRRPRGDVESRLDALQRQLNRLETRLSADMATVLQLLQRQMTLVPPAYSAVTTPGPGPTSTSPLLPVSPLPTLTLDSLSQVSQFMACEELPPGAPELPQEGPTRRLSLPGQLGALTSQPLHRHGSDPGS

On to `COc1cc(N)c(Cl)cc1C(=O)N[C@@H]1CCN(CCCOc2ccc(F)cc2)C[C@H]1F` (racemic) [(±)-7, trans-4-amino-5-chloro-N-{3-fluoro-1-[3-(4-fluorophenoxy)-propyl]-piperidin-4-yl}-2-methoxybenzamide], for which the “% block of the hERG channel” value in series [1] (100 nM) was 35 (7) %; in series [1] (300 nM), 62 (15) %; in series [1] (3000 nM), 94 (21) %. Further, the IC50 in series [2] is 112 nM; in series [3], 617 nM; in series [4], 60 nM. Further, the antagonist dissociation constant (Kb) (in general, the equilibrium dissociation constant of an antagonist, usually derived from a functional assay) in series [4] was determined as 20 nM.

As for `COc1cc(N)c(Cl)cc1C(=O)N[C@H]1CCN(CCCOc2ccc(F)cc2)C[C@H]1F` (racemic) [(±)-12, cis-4-amino-5-chloro-N-{3-fluoro-1-[3-(4-fluorophenoxy)-propyl]-piperidin-4-yl}-2-methoxybenzamide], the “% block of the hERG channel” value in series [1] (100 nM) is 40 (7) %; in series [1] (300 nM), 73 (15) %; in series [1] (3000 nM) it was 96 (21) %. Further, the IC50 in series [2] is 363 nM; in series [3], 115 nM; in series [4], 12 nM. In addition, in series [4], the Kb was 4.2 nM.

Consider `COc1cc(N)c(Cl)cc1C(=O)NC1CCN(CCCOc2ccc(F)cc2)CC1(F)F` (racemic) [(±)-17, 4-amino-5-chloro-N-{3,3-difluoro-1-[3-(4-fluorophenoxy)-propyl]-piperidin-4-yl}-2-methoxybenzamide], for which the “% block of the hERG channel” value in series [1] (100 nM) is given as 9 (7) %; in series [1] (300 nM), 17 (15) %; in series [1] (3000 nM), 58 (21) %. In addition, the values for the IC50 in series [2] and in series [3] were 1950 nM and over 10000 nM, respectively.

In the case of `COc1cc(N)c(Cl)cc1C(=O)N[C@@H]1CCN(CCCOc2ccc(F)cc2)C[C@H]1F` (single isomer, unassigned) [(+)-7, trans-4-amino-5-chloro-N-{3-fluoro-1-[3-(4-fluorophenoxy)-propyl]-piperidin-4-yl}-2-methoxybenzamide], the IC50 in series [2] is 70.8 nM; in series [3], 871 nM.

`COc1cc(N)c(Cl)cc1C(=O)N[C@H]1CCN(CCCOc2ccc(F)cc2)C[C@H]1F` (single isomer, unassigned) [(+)-12, cis-4-amino-5-chloro-N-{3-fluoro-1-[3-(4-fluorophenoxy)-propyl]-piperidin-4-yl}-2-methoxybenzamide]: the IC50 in series [2] was 324 nM; in series [3] it was 126 nM.

For `COc1cc(N)c(Cl)cc1C(=O)N[C@@H]1CCN(CCCOc2ccc(F)cc2)C[C@H]1F` (single isomer, unassigned) [(−)-7, trans-4-amino-5-chloro-N-{3-fluoro-1-[3-(4-fluorophenoxy)-propyl]-piperidin-4-yl}-2-methoxybenzamide], the IC50 was 759 nM in series [2] and 437 nM in series [3].

In the case of `COc1cc(N)c(Cl)cc1C(=O)N[C@H]1CCN(CCCOc2ccc(F)cc2)C[C@H]1F` (single isomer, unassigned) [(−)-12, cis-4-amino-5-chloro-N-{3-fluoro-1-[3-(4-fluorophenoxy)-propyl]-piperidin-4-yl}-2-methoxybenzamide], the values for the IC50 in series [2] and in series [3] were 490 nM and 537 nM, respectively.

For the compound `COc1cc(N)c(Cl)cc1C(=O)NC1CCN(CCCOc2ccc(F)cc2)CC1(F)F` (single isomer, unassigned) [Compound (−)-17, 4-amino-5-chloro-N-{3,3-difluoro-1-[3-(4-fluorophenoxy)-propyl]-piperidin-4-yl}-2-methoxybenzamide], the “% block of the hERG channel” value in series [1] (100 nM) was 3 (7) %; in series [1] (300 nM) it was 11 (10) %; in series [1] (3000 nM), 47 (11) %. Further, the IC50 is 1740 nM in series [2] and 1.6 nM in series [4]. For the same compound, in series [3], the “pIC50 5HT4B” value is on record as under 5. Besides, in series [4], the Kb was 0.55 nM.

For `COc1cc(N)c(Cl)cc1C(=O)NC1CCN(CCCOc2ccc(F)cc2)CC1(F)F` (single isomer, unassigned; (+)) [(+)-17, 4-amino-5-chloro-N-{3,3-difluoro-1-[3-(4-fluorophenoxy)-propyl]-piperidin-4-yl}-2-methoxybenzamide], the “% block of the hERG channel” value is reported as 14 (7) % in series [1] (100 nM), 21 (10) % in series [1] (300 nM) and 52 (11) % in series [1] (3000 nM). The figures for the IC50 in series [2], in series [3] and in series [4] were 2570 nM, over 10000 nM and 33 nM, respectively. Further, the Kb in series [4] amounted to 11 nM.

The values are drawn from US9139523B2, “5-HT2B receptor antagonists” (Janssen Pharmaceutica, NV, priority 2010, dated 2015).
